Patent publication US11046658B2, “Aminopyrazine derivatives as PI3K-γ inhibitors” (Incyte Corporation, priority 2018, dated 2021)
Structures can show the parent of a compound that is named as a salt. Where two headings read alike, the source gives them in different places.

Tested on: Phosphorylated Ribosomal Protein S6 (RPS6) in THP-1 cells
Assay: THP-1 RPS6 ELISA Assay
Assay type: cell-based, Human
Settings: Homo sapiens, THP-1 cells, 10 nM MCP-1, read-out: PI3Kγ_THP1_RPS6_ELISA IC50
Procedure: To measure the Phosphorylated Ribosomal Protein S6 (RPS6) in cell lysates, THP-1 cells (Human Acute Monocytic Leukemia) are purchased from ATCC (Manassas, Va.) and maintained in RPMI with 10% FBS (Gibco/Life Technologies, Carlsbad, Calif.). For the assay, THP-1 cells are serum starved overnight in RPMI, then plated in RPMI (2×10^5 cells/well in 90 μL) into 96-well flat-bottom tissue culture treated plates (Corning, Corning, N.Y.), in the presence or absence of a concentration range of test compounds. Covered plates are incubated for 2 hours at 37° C., 5% CO2 then treated with or without 10 nM MCP-1(MYBioSource, San Diego, Calif.) for 15 minutes at 37° C., 5% CO2. Plates are centrifuged at 1600 RPM and supernatants are removed. Cells are lysed in Lysis Buffer (Cell Signaling, Danvers, Mass.) with Protease Inhibitor (Calbiochem/EMD, Germany), PMSF (Sigma, St Louis Mo.), HALTS (Thermo Fisher, Rockford, Ill.) for 30 min on wet ice. Cell lysates are frozen at −80 OC before testing. The lysates are tested in the Human/Mouse/Rat Phospho-RPS6 ELISA (R&D Systems, Inc. Minn, Minn.). The plate is measured using a microplate reader (SpectraMax M5—Molecular Devices, LLC Sunnyvale, Calif.) set to 450 nm with a wavelength correction of 540. IC50 determination is performed by fitting the curve of inhibitor percent inhibition versus the log of the inhibitor concentration using the GraphPad Prism 5.0 software.

IC50 (Table A1) [nM]	IC50 (Table A2) [nM]	SMILES
< 100		Cc1ccc(C(O)(C(N)=O)C(F)(F)F)cc1-c1cnc(N)c(C(=O)N2CCC2(C)C)n1 (centres unmarked) [Example 27, 2-(3-(5-amino-6-(2,2-dimethylazetidine-1-carbonyl)pyrazin-2-yl)-4-methylphenyl)-3,3,3-trifluoro-2-hydroxypropanamide]
< 100		CCNC(=O)c1nc(-c2cc(C(O)(C(N)=O)C(F)F)ccc2C)cnc1N (centres unmarked) [Example 32, 3-amino-6-(5-(1-amino-3,3-difluoro-2-hydroxy-1-oxopropan-2-yl)-2-methylphenyl)-N-ethylpyrazine-2-carboxamide]
< 100		Cc1ccc(C(O)(C(N)=O)C(F)F)cc1-c1cnc(N)c(C(=O)NCC2(C#N)CC2)n1 (centres unmarked) [Example 33, 3-amino-6-(5-(1-amino-3,3-difluoro-2-hydroxy-1-oxopropan-2-yl)-2-methylphenyl)-N-((1-cyanocyclopropyl)methyl)pyrazine-2-carboxamide]
< 100		Cc1ccc(C(O)(C(N)=O)C(F)F)cc1-c1cnc(N)c(C(=O)NC2CCC(F)(F)CC2)n1 (centres unmarked) [Example 34, 3-amino-6-(5-(1-amino-3,3-difluoro-2-hydroxy-1-oxopropan-2-yl)-2-methylphenyl)-N-(4,4-difluorocyclohexyl)pyrazine-2-carboxamide]
< 100		Cc1ccc(C(O)(C(N)=O)C(F)F)cc1-c1cnc(N)c(C(=O)NC(C)(C)CO)n1 (centres unmarked) [Example 35, 3-amino-6-(5-(1-amino-3,3-difluoro-2-hydroxy-1-oxopropan-2-yl)-2-methylphenyl)-N-(1-hydroxy-2-methylpropan-2-yl)pyrazine-2-carboxamide]
< 100		Cc1ccc(C(O)(C(N)=O)C(F)F)cc1-c1cnc(N)c(C(=O)NC2CCOCC2)n1 (centres unmarked) [Example 36, 3-amino-6-(5-(1-amino-3,3-difluoro-2-hydroxy-1-oxopropan-2-yl)-2-methylphenyl)-N-(tetrahydro-2H-pyran-4-yl)pyrazine-2-carboxamide]
< 100		Cc1ccc(C(O)(C(N)=O)C(F)F)cc1-c1cnc(N)c(C(=O)NCCC2CCOC2)n1 (centres unmarked) [Example 37, 3-amino-6-(5-(1-amino-3,3-difluoro-2-hydroxy-1-oxopropan-2-yl)-2-methylphenyl)-N-(2-(tetrahydrofuran-3-yl)ethyl)pyrazine-2-carboxamide]
< 100		Cc1ccc(C(O)(C(N)=O)C(F)(F)F)cc1-c1cnc(N)c(C(=O)NCC(F)(F)F)n1 (centres unmarked) [Example 38, 3-Amino-6-(5-(3-amino-1,1,1-trifluoro-2-hydroxy-3-oxopropan-2-yl)-2-methylphenyl)-N-(2,2,2-trifluoroethyl)pyrazine-2-carboxamide trifluoroacetate]
< 500		CC(=O)NCC(O)(c1ccc(C)c(-c2cnc(N)c(C(=O)NC(C)C)n2)c1)C(F)(F)F (centres unmarked) [Example 39, 6-(5-(3-Acetamido-1,1,1-trifluoro-2-hydroxypropan-2-yl)-2-methylphenyl)-3-amino-N-isopropylpyrazine-2-carboxamide trifluoroacetate]
	< 100	COCC#Cc1nc(-c2cc(C(O)(C(N)=O)C(F)(F)F)ccc2C)cnc1N (centres unmarked) [Example 47, 2-(3-(5-amino-6-(3-methoxyprop-1-ynyl)pyrazin-2-yl)-4-methylphenyl)-3,3,3-trifluoro-2-hydroxypropanamide trifluoroacetate]
	> 1000	Cc1ccc(C(O)(C(N)=O)C(F)(F)F)cc1-c1cnc(N)c(C#CC2CC2)n1 (centres unmarked) [Example 48, 2-(3-(5-amino-6-(cyclopropylethynyl)pyrazin-2-yl)-4-methylphenyl)-3,3,3-trifluoro-2-hydroxypropanamide]
	< 500	Cc1ccc(C(O)(C(N)=O)C(F)(F)F)cc1-c1cnc(N)c(C#CC(C)C)n1 (centres unmarked) [Example 49, 2-(3-(5-amino-6-(3-methylbut-1-ynyl)pyrazin-2-yl)-4-methylphenyl)-3,3,3-trifluoro-2-hydroxypropanamide]
	< 100	Cc1ccc(C(O)(C(N)=O)C(F)(F)F)cc1-c1cnc(N)c(C#CC(C)(C)O)n1 (centres unmarked) [Example 50, 2-(3-(5-amino-6-(3-hydroxy-3-methylbut-1-ynyl)pyrazin-2-yl)-4-methylphenyl)-3,3,3-trifluoro-2-hydroxypropanamide]
	< 100	Cc1ccc(C(O)(C(N)=O)C(F)(F)F)cc1-c1cnc(N)c(C#CCC(C)O)n1 (centres unmarked) [Example 51, 2-(3-(5-amino-6-(4-hydroxypent-1-ynyl)pyrazin-2-yl)-4-methylphenyl)-3,3,3-trifluoro-2-hydroxypropanamide]
	< 500	Cc1ccc(C(O)(C(N)=O)C(F)(F)F)cc1-c1cnc(N)c(C#Cc2ccn[nH]2)n1 (centres unmarked) [Example 52, 2-(3-(6-((1H-pyrazol-5-yl)ethynyl)-5-aminopyrazin-2-yl)-4-methylphenyl)-3,3,3-trifluoro-2-hydroxypropanamide]
	< 500	Cc1ccc(C(O)(C(N)=O)C(F)(F)F)cc1-c1cnc(N)c(C#Cc2cncn2C)n1 (centres unmarked) [Example 53, 2-(3-(5-amino-6-((1-methyl-1H-imidazol-5-yl)ethynyl)pyrazin-2-yl)-4-methylphenyl)-3,3,3-trifluoro-2-hydroxypropanamide]
	< 100	Cc1ccc(C(O)(C(N)=O)C(F)(F)F)cc1-c1cnc(N)c(C#Cc2cnn(C)c2)n1 (centres unmarked) [Example 54, 2-(3-(5-amino-6-((1-methyl-1H-pyrazol-4-yl)ethynyl)pyrazin-2-yl)-4-methylphenyl)-3,3,3-trifluoro-2-hydroxypropanamide]
	< 100	Cc1ccc(C(O)(C(N)=O)C(F)(F)F)cc1-c1cnc(N)c(C#Cc2ccccn2)n1 (centres unmarked) [Example 55, 2-(3-(5-amino-6-(pyridin-2-ylethynyl)pyrazin-2-yl)-4-methylphenyl)-3,3,3-trifluoro-2-hydroxypropanamide]
	< 100	Cc1ccc(C(O)(C(N)=O)C(F)(F)F)cc1-c1cnc(N)c(C#Cc2cncnc2)n1 (centres unmarked) [Example 56, 2-(3-(5-amino-6-(pyrimidin-5-ylethynyl)pyrazin-2-yl)-4-methylphenyl)-3,3,3-trifluoro-2-hydroxypropanamide]
	< 100	Cc1ccc(C(O)(C(N)=O)C(F)(F)F)cc1-c1cnc(N)c(C#Cc2cnccn2)n1 (centres unmarked) [Example 57, 2-(3-(5-amino-6-(pyrazin-2-ylethynyl)pyrazin-2-yl)-4-methylphenyl)-3,3,3-trifluoro-2-hydroxypropanamide]
	< 100	Cc1ccc(C(O)(C(N)=O)C(F)(F)F)cc1-c1cnc(N)c(C#Cc2ccc(C#N)cc2)n1 (centres unmarked) [Example 58, 2-(3-(5-amino-6-((4-cyanophenyl)ethynyl)pyrazin-2-yl)-4-methylphenyl)-3,3,3-trifluoro-2-hydroxypropanamide]
	< 100	Cc1ccc(C(O)(C(N)=O)C(F)(F)F)cc1-c1cnc(N)c(C#Cc2ccc(CC#N)cc2)n1 (centres unmarked) [Example 59, 2-(3-(5-amino-6-((4-(cyanomethyl)phenyl)ethynyl)pyrazin-2-yl)-4-methylphenyl)-3,3,3-trifluoro-2-hydroxypropanamide]
	< 100	COc1cc(C#Cc2nc(-c3cc(C(O)(C(N)=O)C(F)(F)F)ccc3C)cnc2N)cc(OC)c1 (centres unmarked) [Example 60, 2-(3-(5-amino-6-((3,5-dimethoxyphenyl)ethynyl)pyrazin-2-yl)-4-methylphenyl)-3,3,3-trifluoro-2-hydroxypropanamide]
	< 100	Cc1ccc(C(O)(C(N)=O)C(F)(F)F)cc1-c1cnc(N)c(C#Cc2cccc(F)c2)n1 (centres unmarked) [Example 61, 2-(3-(5-amino-6-((3-fluorophenyl)ethynyl)pyrazin-2-yl)-4-methylphenyl)-3,3,3-trifluoro-2-hydroxypropanamide]
	< 100	Cc1ccc(C(O)(C(N)=O)C(F)(F)F)cc1-c1cnc(N)c(C#CC(C)(O)C(C)C)n1 (centres unmarked) [Example 62, 2-(3-(5-amino-6-(3-hydroxy-3,4-dimethylpent-1-ynyl)pyrazin-2-yl)-4-methylphenyl)-3,3,3-trifluoro-2-hydroxypropanamide]
	< 100	Cc1ccc(C(O)(C(N)=O)C(F)(F)F)cc1-c1cnc(N)c(C#CC2CCOCC2)n1 (centres unmarked) [Example 63, 2-(3-(5-amino-6-((tetrahydro-2H-pyran-4-yl)ethynyl)pyrazin-2-yl)-4-methylphenyl)-3,3,3-trifluoro-2-hydroxypropanamide]
	< 100	Cc1ccc(C(O)(C(N)=O)C(F)(F)F)cc1-c1cnc(N)c(C#CC2(C)CCOCC2)n1 (centres unmarked) [Example 64, 2-(3-(5-amino-6-((4-methyltetrahydro-2H-pyran-4-yl)ethynyl)pyrazin-2-yl)-4-methylphenyl)-3,3,3-trifluoro-2-hydroxypropanamide]

SMILES	IC50 (Table A1) [nM]	IC50 (Table A2) [nM]
Cc1ccc(C(O)(CNC(=O)CF)C(F)(F)F)cc1-c1cnc(N)c(C(=O)NC(C)C)n1 (centres unmarked) [Example 40, 3-Amino-N-isopropyl-6-(2-methyl-5-(1,1,1,-trifluoro-3-(2-fluoroacetamido)-2-hydroxypropan-2-yl)phenyl)pyrazine-2-carboxamide trifluoroacetate]	< 500	
Cc1ccc(C(O)(CNC(=O)CC#N)C(F)(F)F)cc1-c1cnc(N)c(C(=O)NC(C)C)n1 (centres unmarked) [Example 42, 3-Amino-6-(5-(3-(2-cyanoacetamido)-1,1,1-trifluoro-2-hydroxypropan-2-yl)-2-methylphenyl)-N-isopropylpyrazine-2-carboxamide trifluoroacetate]	< 500	
